# Where “and” joins values, the source holds several entries; their conditions need not be identical. Equal entries are not always repeated. Structures can show the parent of a compound that is named as a salt. Marks after values point to notes of the source that are not given here.
# Key:
# [1] = test system: rat right atria; experiment: Right atrial spontaneous contraction frequency
# Experimental: (§1) Left atria (n=9) were paced at 0.1 Hz, treated with 300 nM BayK 8644 for 5 min, then with 20 μM 2-APB for 10 min, and the pacing stimulus was stopped. These preparations then were incubated with six increasing concentrations of zatebradine (10-100 μM) for 3-5 min at each concentration, and rates of SMA were recorded. Untreated right atria (n=9) also were titrated with zatebradine and its effect on contraction frequency was recorded.
# (§2) To test whether zatebradine affects the SMA occurring in the presence of 2-APB and isoproterenol, left atria (n=7) were paced at 0.1 Hz, treated with 30 nM isoproterenol for 5 min, then with 20 μM 2-APB for 10 min, and the pacing stimulus was stopped. Rates of SMA were recorded, these left atria were exposed to 70 μM zatebradine for 10 min, and rates of SMA were recorded again. A group of right atria (n=7) also were exposed to 30 nM isoproterenol for 5 min and then to 70 μM zatebradine for 10 min. Right atrial contraction frequency was recorded at these two times.
# (§3) To test whether ZD-7288, an If inhibitor structurally unrelated to zatebradine (Baruscotti et al., 2005; Sanders et al., 2006) affects the SMA occurring in the presence of 2-APB and BayK 8644, rat left atria (n=7) were treated with 300 nM BayK 8644 for 5 min, then with 20 μM 2-APB for 10 min, and the rates of ectopic activity were recorded. These atria then were incubated with six increasing concentrations of ZD-7288 (10-100 μM) for 3-5 min at each concentration, and the rates of SMA were recorded. Right atria (n=7) were titrated similarly with ZD-7288 (0-100 μM) and the change in their contraction frequency was recorded.
# [2] = test system: rat left atria; experiment: Suppression of STA induced by 2-APB plus BayK 8644 or isoproterenol in left atria; settings: for effect on STA initiated by BayK 8644 and 2-APB: 300 nM BayK 8644 + 20 μM 2-APB, zatebradine 70 μM, ZD-7288 10-100 μM, SKF-96365 about 10-70 μM
# Experimental: 3 Hz-paced left atria (n=9 per group) were superfused (i) in Krebs-Henseleit alone or (ii) they were treated with 20 μM 2-APB for 10 min, (iii) with 300 nM BayK 8644 for 10 min and with 20 μM 2-APB for 10 min, or (iv) they were treated with 300 nM BayK 8644 and 20 μM 2-APB for 10 min, then with 70 μM zatebradine (3-[3-[[2-(3,4-Dimethoxyphenyl)ethyl]methyl amino]propyl]-1,3,4,5-tetrahydro-7,8,-dimethoxy-2H-3-benzazepin-2-one hydrochloride) for 10 min (Baruscotti et al., 2005). Pacing was interrupted at these times and rates of SMA were recorded.
# as §1
# To test whether zatebradine affects left atrial force of contraction, two groups of left atria (n=9 per group) were paced at 3 Hz and treated with 300 nM BayK 8644. Five minutes later one group was incubated with six increasing concentrations of zatebradine (10-100 μM) for 3-5 min at each concentration, and forces of contraction were recorded. A second group was treated with BayK 8644 but not zatebradine, and forces of contraction were recorded at corresponding times.
# as §2, §3
# In these experiments, a 2-APB model system was used to simulate tachycardic abnormal automaticity. Specifically, superfused left atria were treated sequentially with 300 nM BayK 8644, an activator of voltage-dependent calcium entry, which loads myocytes with calcium, and then with 2-APB (20 μM) to activate the putative myocyte system for abnormal automaticity. […] SKF-96365 (10 μM) was added to the superfusate. SKF-96365 reversed STA in these left atria within 2-3 min and the muscle became quiescent in the absence of pacing (FIG. 34, “Rest”).
# Additional experiments determined the concentration-dependence of SKF-96365 inhibition of STA. These experiments were performed as described above except that various concentrations of SKF-96365 were added to the left atrial superfusate (about 10-70 μM). Exposing left atria to various concentrations of SKF-96365 reversed STA (FIG. 35).
# [3] = test system: right ventricular muscle strips and right ventricular papillary muscles; experiment: Ventricular muscle model of SMA; set-up: species or system rats; settings: added to the superfusate in appropriate amounts; paced at 0.5 Hz
# Text: To further establish this model as a general test for arrhythmic and anti-arrhythmic agents, right ventricular muscle strips and right ventricular papillary muscles were isolated from anesthetized rats using methods known to persons skilled in the art. These muscles were then superfused as described above and paced at 0.5 Hz.
# [4] = test system: isolated rat left atria; experiment: Pharmacological activation of spontaneous tachycardic activity (STA): calcium-loading agents with or without 2-APB
# Experimental: Male Sprague-Dawley rats (325-400 g) were anesthetized with intra-peritoneal pentobarbital (0.1 g/kg). Their right and left atria were isolated, superfused at 30° C. in Krebs-Henseleit buffer, and nearly isometric forces of contraction were measured from these muscles (Wolkowicz et al., 2002). 2-APB was prepared as a 150 mM dimethyl sulfoxide stock.
# Left atria (n=8 per group) were paced at 3 Hz and (i) titrated with 0 to 30 nM isoproterenol (Ahlquist, 1970) or (ii) exposed to 3 μM forskolin (Laurenza et al., 1980). Left atrial force and frequency of contraction, the time to peak tension and relaxation times were recorded after a 3-5 min exposure to forskolin or to any concentration of isoproterenol. The 3 Hz pacing stimulus was interrupted at the end of these protocols to measure SMA. […]
# Left atrial contraction and relaxation times were recorded at these five times, the pacing stimulus was stopped and rates of SMA were recorded. […] Atrial mechanical function was measured at these four times; the pacing stimulus then was stopped and rates of SMA were recorded.
# Left atria (n=6 per group) were paced at 3 Hz, titrated with 0 to 300 nM (−)BayK 8644 ([…]-1,4-Dihydro-2,6-dimethyl-5-nitro-4-[2-(trifluormethyl)phenyl]-3-pyridinecarboxylic acid methyl ester; Franckowiak et al. 1985) or FPL-64176 (2,5-Dimethyl-4-[2-(phenylmethyl)benzoyl]-1H-pyrrole-3-carboxlic acid methyl ester); Zheng et al., 1991) and their mechanical function and rates of SMA were recorded after a 5 min exposure to any concentration of slow calcium channel activator.
# Atrial mechanical function was recorded at this time; the pacing stimulus then was stopped and rates of SMA were recorded. […]
# Left atria (n=7) were paced at 3 Hz, treated with 120 μM ouabain (Illanes and Marshall, 1964), and any change in mechanical function was recorded at a new steady state, ˜10 min later. […]
# [5] = test system: rat left atria
# Experimental: The initial potentiated beat following prolonged rest (i.e., the PRP maximum force of contraction) reflects activator calcium available for SR release. The PRP response was used to obtain an indirect measure of left atrial SR calcium under our conditions.
# Left atria (n=6) were superfused in KH, paced at 0.1 Hz, and subjected to PRP. Superfusion proceeded for another 35 min, and a second PRP was performed. These 2 forces were compared to assure the mechanical stability of our preparations.
# One group (n=8) was superfused in KH, paced at 0.1 Hz, and their maximum force of contraction was measured.
# A second group (n=8) was paced at 0.1 Hz in KH and subjected to PRP. They were exposed to 22 μM 2-APB and, after the appearance of SMA, were washed with KH containing 22 μM 2-APB and 82 mM sodium. Superfusion continued for 23 min and a second PRP was performed.
# Control 0.1 Hz paced atria (n=8) were subjected to PRP and exposed to 400 μM DIDS, and a second PRP was performed 23 min later.
# A group of atria (n=8) were paced at 0.1 Hz in KH and subjected to PRP. They were exposed to 22 μM 2-APB, 400 μM DIDS was added to the superfusate after the appearance of SMA, and a second PRP was performed 23 min later.
# [6] = test system: isolated, superfused rat left atria
# Experimental: Left atria were isolated from male Sprague-Dawley rats (325 to 400 g) under IP pentobarbital anesthesia (0.1 g/kg). Isolated left atria were superfused at 30° C. in Krebs-Henseleit (KH) buffer of the following mM composition: NaCl, 118; NaHCO3, 27; KCl, 4.8; MgSO4, 1.2; KH2PO4, 1.0; CaCl2, 1.8; and glucose, 11.1. Nearly isometric left atrial forces of contraction were measured as described.
# Isolated superfused left atria were paced at 3 Hz. 2-APB was added to atrial superfusates from 0.015 or 0.15M DMSO stock solutions to achieve concentrations of 0, 2, 7.5, 15, or 22 μM (n=5 to 10 atria per concentration). Changes in atrial mechanical force were recorded during a subsequent 15 min superfusion.
# Two groups of 5 to 6, 3 Hz paced atria were superfused in KH and exposed to 0 or 15 μM 2-APB for 10 min. The pacing stimulus was interrupted for 5 min and the number of spontaneous mechanical events (SMEs), defined as increases in mechanical force occurring in the absence of pacing, were measured as was the postrest potentiation response (PRP).
# To determine whether diastolic interval affected the interaction between 2-APB and left atria, atrial pacing was decreased to 0.1 Hz, and 0, 7.5, or 22 μM 2-APB was added to the superfusate (n=6-8 per group). Superfusions continued for 15 min, and changes in atrial mechanical function were observed.
# To establish whether SMA was reversible, atria (n=7) were paced at 0.1 Hz, exposed to 15 μM 2-APB for 10 min, and washed with KH. The effect of removing 2-APB on atrial mechanical function was recorded.
# [7] = 2-APB values obtained during SMA, mean ± SEM
smiles,measurement,setting,value
CCN(c1ccccc1)c1cc(NC)[n+](C)c(C)n1.[Cl-] [ZD-7288],effect on right atrial contraction frequency,[1]; ZD-7288 0-100 μM,decreases right atrial contraction frequency less robustly than zatebradine
same,effect on STA initiated by BayK 8644 and 2-APB,[2],decreases left atrial STA
"c1ccc(B(OB(c2ccccc2)c2ccccc2)c2ccccc2)cc1 [DPBA, diphenyl boronic anhydride]",induction of ventricular SMA,[3],ventricular SMA was observed
"COc1ccc(CCN(C)CCCN2CCc3cc(OC)c(OC)cc3CC2=O)cc1OC [zatebradine, 3-[3-[[2-(3,4-Dimethoxyphenyl)ethyl]methylamino]propyl]-1,3,4,5-tetrahydro-7,8,-dimethoxy-2H-3-benzazepin-2-one hydrochloride]",right atrial contraction frequency,"[1]; 30 nM isoproterenol, then 70 μM zatebradine for 10 min",212±9.7 contractions/min
same,IC50,"[1]; Rattus norvegicus, untreated right atria titrated with zatebradine, read-out: IC50 for decrease of right atrial contraction frequency",12 ± 1.1 µM
same,maximum decrease of right atrial contraction frequency,[1]; zatebradine titration,~50%
same,effect on STA initiated by BayK 8644 and 2-APB,[2],significantly decreases
same,effect on left atrial force of contraction,"[2]; 300 nM BayK 8644, 10-100 μM zatebradine",does not affect left atrial force of contraction
same,"left atrial force of contraction, % of initial force","[2]; 3 Hz-paced, 300 nM BayK 8644, titrated with 10-100 μM zatebradine",95±3.8 % of initial force
same,IC50,"[2]; Rattus norvegicus, intact left atria exposed to BayK 8644 and 2-APB, linear decrease",58 ± 5 µM
same,rate of appendage STA with zatebradine,[2]; isoproterenol + 2-APB + 70 μM zatebradine for 10 min,110±24.5 contractions/min
"NCCOB(c1ccccc1)c1ccccc1 [2-APB, 2-aminoethoxydiphenyl borate]",induction of ventricular SMA,[3],ventricular SMA was observed
same,"rate of tachycardic response, Pre-washing",[4]; 300 nM BayK 8644 and 20 μM 2-APB,224±12 contractions/min
same,rate of SMA/STA in the absence of pacing,"[4]; 20 μM 2-APB alone or with 30 nM isoproterenol, 3 μM forskolin, 300 nM BayK 8644, 300 nM FPL-64176 or 120 μM ouabain",47±6 contractions/min and ~50 contractions/min
same,T0.5R (time to 50% relaxation),[4]; concentrations per footnote,35.9 msc
same,T0.9R (time to 90% relaxation),[4]; concentrations per footnote,68.4 msc
same,TPT (time to peak tension),[4]; concentrations per footnote,57.5 msc
same,SMA Rate,"[4]; spontaneous atrial mechanical events, concentrations per footnote",47^‡ SMEs per minute
same,"rate of tachycardic response, Post-washing","[4]; washed with superfusate containing slow calcium channel activator but no 2-APB, 5 min later",0.7±0.4 contractions/min
same,maximum force of left atrial contraction vs values before the addition of 2-APB,[5],significantly decreased
same,reversibility of SMA on removing 2-APB from the superfusate,"[6]; 0.1 Hz, 15 μM 2-APB, washed with KH, data not shown",restored regular atrial mechanical function
same,T0.5R (time to 50% relaxation),[6]; [7],35 ± 0.8 ms
same,T0.9R (time to 90% relaxation),[6]; [7],74 ± 0.8 ms
same,TPT (time to peak tension),[6]; [7],59 ± 1.6 ms
same,2-APB concentration giving numerous SMEs during rest and a blunted post-rest response,"[6]; 3 Hz paced, 2-APB 10 min, then 5 min rest",≥ 15 µM
same,2-APB concentration giving intermittent SMEs,[6]; atria paced at 0.1 Hz,≤ 10 µM
same,2-APB concentration giving repeated SMEs giving way to sustained SMA,[6]; atria paced at 0.1 Hz,> 15 µM
same,2-APB concentration producing sporadic/intermittent spontaneous mechanical events,"[6]; left atria paced at 3 Hz, 5 to 10 min of exposure",> 10 µM and > 7.5 µM
